Experimental findings from patent US20140303164A1, “THERAPEUTIC COMPOUNDS” (Gilead Sciences, Inc., priority 2013, published 2014) are described below.

Data set [1] is described as follows: Test B: Cytotoxicity Assay. In kind it is cell-based. The conditions noted are these: human, uninfected MT-4 cells, same protocol as Test A. The procedure, abridged:
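Uninfected MT-4 cells (2000 per well) incubated with diluted compound at 37° C. for 5 days, following the antiviral protocol without HIV-IIIb.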

The next data set concerns HIV-IIIb. Kind of data set: Test A: Antiviral Assay in MT4 Cells. In kind it is cell-based, HIV-1. To be noted: Human immunodeficiency virus 1, IIIB, MT4, 120 h; for inhibition at 0.2 µM: read-out: % inhibition at 0.2 μM; for inhibition at 2 µM: read-out: % inhibition at 2 μM. As for the experimental part:
Test A: Antiviral Assay in MT4 Cells
MT-4 cells were next mixed with HIV-IIIb at an m.o.i of 0.003 for 1 hour, after which time 35 μL of virus/cell mixture (2000 cells) was immediately added to each well containing 40 μL of diluted compound. The plates were then incubated at 37° C. for 5 days. […] Cell lysis was carried out by incubating at room temperature for 10 min and then chemiluminescence was read.

The term CC50 denotes the concentration that lowers cell viability or growth by half. Lower therefore signals harm at low concentration. What is called inhibition is the share of the control response that was lost under treatment.

Each structure is given as a SMILES string.

For `Cn1nc(NS(C)(=O)=O)c2c(Cl)ccc(-c3ccc(C#CC(C)(C)O)nc3[C@H](Cc3cc(F)cc(F)c3)NC(=O)Cn3nc(C(F)(F)F)c4c3COCC4)c21` [Compound 190, (S)—N-(1-(3-(4 chloro-1-methyl-3-(methylsulfonamido)-1H-indazol-7-yl)-6-(3-hydroxy-3-methylbut-1-yn-1-yl)pyridin-2-yl)-2-(3,5-difluorophenyl)ethyl)-2-(3-(trifluoromethyl)-4,5-dihydropyrano[3,4-c]pyrazol-1(7H)-yl)acetamide], in data set [1], the CC50 at 5 days stood at 13.9 µM. For the same compound, in the data set with HIV-IIIb, the inhibition at 0.2 µM turned out to be 98% and the inhibition at 2 µM stood at 98%.
Consider `CN1CCN(S(=O)(=O)Nc2nn(C)c3c(-c4ccc(C#CC(C)(C)O)nc4[C@H](Cc4cc(F)cc(F)c4)NC(=O)Cn4nc(C(F)(F)F)c5c4C(F)(F)[C@@H]4C[C@H]54)cccc23)CC1` [Compound 56F, 2-((3bS,4aR)-5,5-difluoro-3-(trifluoromethyl)-3b,4,4a,5-tetrahydro-1H-cyclopropa[3,4]cyclopenta[1,2-c]pyrazol-1-yl)-N—((S)-2-(3,5-difluorophenyl)-1-(6-(3-hydroxy-3-methylbut-1-yn-1-yl)-3-(1-methyl-3-(4-methylpiperazine-1-sulfonamido)-1H-indazol-7-yl)pyridin-2-yl)ethyl)acetamide], for which the CC50 at 5 days in data set [1] was found to be 19 µM. Moreover, in the data set with HIV-IIIb, the inhibition at 0.2 µM was 97% and the inhibition at 2 µM was determined as 97%.
In turn, `CNCC(=O)Nc1nn(C)c2c(-c3ccc(C#CC(C)(C)O)nc3[C@H](Cc3cc(F)cc(F)c3)NC(=O)Cn3nc(C(F)F)c4c3C(F)(F)[C@@H]3C[C@H]43)ccc(Cl)c12` [Compound 101, N—((S)-1-(3-(4-chloro-1-methyl-3-(2-(methylamino)acetamido)-1H-indazol-7-yl)-6-(3-hydroxy-3-methylbut-1-yn-1-yl)pyridin-2-yl)-2-(3,5-difluorophenyl)ethyl)-2-((3bS,4aR)-3-(difluoromethyl)-5,5-difluoro-3b,4,4a,5-tetrahydro-1H-cyclopropa[3,4]cyclopenta[1,2-c]pyrazol-1-yl)acetamide] yielded a CC50 at 5 days in data set [1] of 6.53 µM. Moreover, in the data set with HIV-IIIb, the inhibition at 0.2 µM is 95% and the inhibition at 2 µM was 95%.
`Cn1nc(NS(C)(=O)=O)c2c(Cl)ccc(-c3cc(-c4ccccc4)cnc3[C@H](Cc3cc(F)cc(F)c3)NC(=O)Cn3nc(C(F)F)c4c3C(F)(F)[C@@H]3C[C@H]43)c21` [Compound 177D, N—((S)-1-(3-(4-chloro-1-methyl-3-(methylsulfonamido)-1H-indazol-7-yl)-5-phenylpyridin-2-yl)-2-(3,5-difluorophenyl)ethyl)-2-((3b-S,4aR)-3-(difluoromethyl)-5,5-difluoro-3b,4,4a,5-tetrahydro-1H-cyclopropa[3,4]cyclopenta[1,2-c]pyrazol-1-yl)acetamide] had a CC50 at 5 days in data set [1] of over 53.2 µM. Further, in the data set on HIV-IIIb, the inhibition at 0.2 µM is 100% and the inhibition at 2 µM is 100%.
`Cn1nc(N)c2c(C#N)ccc(-c3ccc(C#CC(C)(C)O)nc3[C@H](Cc3cc(F)cc(F)c3)NC(=O)Cn3nc(C(F)F)c4c3C(F)(F)[C@@H]3C[C@H]43)c21` [Compound 77E, N—((S)-1-(3-(3-amino-4-cyano-1-methyl-1H-indazol-7-yl)-6-(3-hydroxy-3-methylbut-1-yn-1-yl)pyridin-2-yl)-2-(3,5-difluorophenyl)ethyl)-2-((3b-S,4aR)-3-(difluoromethyl)-5,5-difluoro-3b,4,4a,5-tetrahydro-1H-cyclopropa[3,4]cyclopenta[1,2-c]pyrazol-1-yl)acetamide] gave a CC50 at 5 days in data set [1] of 11.8 µM. Further, in the data set on HIV-IIIb, the inhibition at 0.2 µM amounted to 96% and the inhibition at 2 µM came to 97%.
`Cn1nc(NS(C)(=O)=O)c2c(Cl)ccc(-c3ccc(C#CC(C)(C)O)nc3[C@H](Cc3cc(F)cc(F)c3)NC(=O)Cn3nc(C(F)F)cc3C(F)F)c21` [Compound 189, (S)-2-(3,5-bis(difluoromethyl)-1H-pyrazol-1-yl)-N-(1-(3-(4 chloro-1-methyl-3-(methylsulfonamido)-1H-indazol-7-yl)-6-(3-hydroxy-3-methylbut-1-yn-1-yl)pyridin-2-yl)-2-(3,5-difluorophenyl)ethyl)acetamide] displayed a half-maximal cytotoxic concentration (CC50) at 5 days in data set [1] of 17.2 µM. For the same compound, in the data set on HIV-IIIb, the inhibition at 0.2 µM was determined as 88% and the inhibition at 2 µM was 88%.
In turn, `Cn1nc(NS(C)(=O)=O)c2c(Cl)ccc(-c3ccc(C#CC(C)(C)O)nc3[C@H](Cc3cc(F)cc(F)c3)NC(=O)Cn3ncc4c3C(F)(F)[C@@H]3C[C@H]43)c21` [Compound 150, N—((S)-1-(3-(4-chloro-1-methyl-3-(methylsulfonamido)-1H-indazol-7-yl)-6-(3-hydroxy-3-methylbut-1-yn-1-yl)pyridin-2-yl)-2-(3,5-difluorophenyl)ethyl)-2-((3bS,4aR)-5,5-difluoro-3b,4,4a,5-tetrahydro-1H-cyclopropa[3,4]cyclopenta[1,2-c]pyrazol-1-yl)acetamide] came in with a CC50 at 5 days in data set [1] of 28.9 µM. In addition, in the data set with HIV-IIIb, the inhibition at 0.2 µM came to 87% and the inhibition at 2 µM was determined as 87%.
Compound `Cn1nc(NS(C)(=O)=O)c2c(Cl)ccc(-c3cc(C(N)=O)cnc3[C@H](Cc3cc(F)cc(F)c3)NC(=O)Cn3nc(C(F)F)c4c3C(F)(F)[C@@H]3C[C@H]43)c21` [Compound 186D, 5-(4-chloro-1-methyl-3-(methylsulfonamido)-1H-indazol-7-yl)-6-((S)-1-(2-((3bS,4aR)-3-(difluoromethyl)-5,5-difluoro-3b,4,4a,5-tetrahydro-1H-cyclopropa[3,4]cyclopenta[1,2-c]pyrazol-1-yl)acetamido)-2-(3,5-difluorophenyl)ethyl)nicotinamide] gave a CC50 at 5 days in data set [1] of 1.52 µM. Besides, in the data set with HIV-IIIb, the inhibition at 0.2 µM turned out to be 87% and the inhibition at 2 µM came to 87%.
`Cn1nc(NCC(F)F)c2cccc(-c3ccc(C#CC(C)(C)O)nc3[C@H](Cc3cc(F)cc(F)c3)NC(=O)Cn3nc(C(F)F)c4c3C(F)(F)[C@@H]3C[C@H]43)c21` [Compound 74D, N—((S)-1-(3-(3-((2,2-difluoroethyl)amino)-1-methyl-1H-indazol-7-yl)-6-(3-hydroxy-3-methylbut-1-yn-1-yl)pyridin-2-yl)-2-(3,5-difluorophenyl)ethyl)-2-((3b-S,4aR)-3-(difluoromethyl)-5,5-difluoro-3b,4,4a,5-tetrahydro-1H-cyclopropa[3,4]cyclopenta[1,2-c]pyrazol-1-yl)acetamide] had a CC50 at 5 days in data set [1] of 6.91 µM. In the data set on HIV-IIIb, the inhibition at 0.2 µM was 99% and the inhibition at 2 µM came to 99%.
In the case of `Cc1nc(NS(C)(=O)=O)c2cccc(-c3ccc(C#CC(C)(C)O)nc3[C@H](Cc3cc(F)cc(F)c3)NC(=O)Cn3nc(C(F)(F)F)c4c3C(F)(F)[C@@H]3C[C@H]43)n12` [Compound 121, 2-((3bS,4aR)-5,5-difluoro-3-(trifluoromethyl)-3b,4,4a,5-tetrahydro-1H-cyclopropa[3,4]cyclopenta[1,2-c]pyrazol-1-yl)-N—((S)-2-(3,5-difluorophenyl)-1-(6-(3-hydroxy-3-methylbut-1-yn-1-yl)-3-(3-methyl-1-(methylsulfonamido)imidazo[1,5-a]pyridin-5-yl)pyridin-2-yl)ethyl)acetamide], in data set [1], the CC50 at 5 days came to 9.18 µM. Moreover, in the data set with HIV-IIIb, the inhibition at 0.2 µM is 46% and the inhibition at 2 µM is 98%.
